# Measurements: article PMC11579209, “Population pharmacokinetics and exposure–response relationships of maribavir in transplant recipients with cytomegalovirus infection” (Journal of Pharmacokinetics and Pharmacodynamics, 2024)
# Columns and labels:
# [1] = test system: CMV; assay: Exposure–response analysis of efficacy, primary endpoint: confirmed CMV viremia clearance at week 8 (SOLSTICE); type: in vivo, human; settings: for Probability of being responder, primary endpoint: AUCss 200 µg∙h/mL
# Method: (§1) The exposure–response analyses for maribavir were based on data collected from transplant recipients with CMV infections that were refractory to treatment with ganciclovir, valganciclovir, foscarnet, or cidofovir in the phase 3 SOLSTICE study (ClinicalTrials.gov: NCT02931539). SOLSTICE was a multicenter, open-label, active-controlled study in which patients were randomized 2:1 to receive maribavir 400 mg BID or IAT for 8 weeks, with 12 weeks of follow-up. The primary endpoint was confirmed CMV clearance at the end of week 8, and the key secondary endpoint was achievement of CMV clearance and symptom control at the end of week 8, maintained through week 16. TE CMV mutation conferring resistance to maribavir was assessed as an exploratory endpoint. Full details of the SOLSTICE study have been published previously.
# (§2) Posterior Bayes parameters of the final PopPK model were used to derive rich concentration–time profiles for maribavir. Actual dosing history and factors affecting the PK of maribavir (i.e., body weight and time-varying presence of strong CYP3A4 inhibitors or strong CYP3A4 inducers) were considered in the predictions.
# (§3) Data set preparation, exploration, visualization of the data and exposure-response analyses were performed using R® (version 4.0.5 for efficacy and resistance analyses; version 4.0.2 for safety analysis) with comprehensive R® archive network (CRAN) and Certara Strategic Consulting (CSC) package. Firth correction on logistic regression was done based on library “logistf”. Logistic regressions with log-linear exposure effect or Emax exposure effect were performed using NONMEM Version VII (version 7.4).
# (§4) Maribavir exposure parameters (AUCss, Cmax.ss, and Ctrough.ss) were combined with the primary and key secondary efficacy endpoints, and with TE CMV mutations conferring resistance to maribavir from the SOLSTICE study. The following covariates were included in the dataset to identify potential influencing factors: transplant type (HCT, SOT); CMV DNA level (high, intermediate, low) at baseline; symptom status (symptomatic or asymptomatic) at baseline; CMV resistant at baseline (yes, no); donor (D) and recipient (R) CMV serostatus (D+/R−, D+/R+, or D−/R+, D−/R−); antilymphocyte use (yes, no); immune function status as measured by total white blood cells from hematology panel at baseline; CMV-specific CD4 + CD69 + and CD8 + CD69 + T cells from immune function assay as continuous variables at baseline; enrolling region (North America, Europe, Asia Pacific); prior use of CMV prophylaxis (yes, no); age (as a continuous parameter) and age group (12 to < 18 years; 18 to < 45 years; 45 to < 65 years; ≥65 years); sex (male, female); race and ethnicity; TE CMV maribavir-resistant mutations (yes, no); and temporal identification of maribavir resistance (no, on maribavir treatment, post-maribavir treatment).
# (§5) The exposure–response analyses were performed using a logistic regression model whereby a response can be defined as 0 (non-responder) or 1 (responder). Logistic regression analyses were performed to explore potential associations with maribavir exposure and the probability of response. The logistic regression model had the following form, assuming that maribavir exposure is included in the model:1 [drawing 1]
# (§6) Pi is the probability of the event in the ith patient and α is the baseline Ln (odds) of the event. The model assumes a linear exposure effect on logit scale, with the parameter α representing the intercept, while β1 represents the slope linking the exposure parameter (X1) of maribavir (AUCss, Cmax.ss, and Ctrough.ss) to the response. The statistical significance of α and β1 was tested in the logistic regression models with a p value of < 0.05, and 95% CIs were provided for each parameter. The odds ratio (OR) for β1 was derived for a specific unit increment of the PK parameter. […]
# [2] = test system: CMV; settings: SOLSTICE, maribavir 400 mg BID vs IAT, cited from earlier work
# [3] = test system: CMV; assay: Exposure–response analysis of efficacy, key secondary endpoint: CMV viremia clearance and symptom control at week 8 maintained through week 16 (SOLSTICE); type: in vivo, human
# Method: as §1, §2, §3, §4, §5, §6
# [4] = design: method as in PMID 18316526; settings: concomitant ketoconazole; cited from earlier work
# [5] = design: species or system human; settings: in vivo
# Method: as §1, §2, §3
# Descriptive statistics were derived for TEAEs, TE serious AEs (SAEs), and TEAEs of special interest during the 8-week treatment phase. Based on the descriptive statistics results, key TEAEs were selected for a formal exposure–response analysis, and exposure parameters of maribavir (AUCday, Cmax.day, Cavg, AUCss, and Cmax.ss) derived from the final PopPK models were merged with retained TEAE. […]
# [6] = test system: Cytochrome P450 (CYP) 1A2; design: method as in PMID 12654667, doi:10.1016/j.bbmt.2018.12.600; settings: formation of VP44469; cited from earlier work
# [7] = design: method as in PMID 38009271; settings: concurrent rifampin; cited from earlier work
# [8] = primary endpoint, reference < 0.5%
# [9] = key secondary endpoint, reference <0.5%
smiles,measurement,setting,value
CC(C)Nc1nc2cc(Cl)c(Cl)cc2n1[C@H]1O[C@@H](CO)[C@H](O)[C@@H]1O [maribavir],"Observed proportion of responders, primary endpoint",[1]; 1st quartile of AUCss (range 72.2–170),59%
same,"Observed proportion of responders, primary endpoint",[1]; 2nd quartile of AUCss (range 170–238),72%
same,"Observed proportion of responders, primary endpoint",[1]; 3rd quartile of AUCss (range 238–354),59%
same,"Observed proportion of responders, primary endpoint",[1]; 4th quartile of AUCss (range 354–802),38%
same,"Probability of being responder, primary endpoint","[1]; CD8 + CD69 + cell count ≥ 2%, no TE mutation",90.0%
same,"Probability of being responder, primary endpoint","[1]; developed TE CMV maribavir-resistant mutation, CD8 + CD69 + < 0.5%",1.3%
same,Relationship between maribavir exposure and probability of CMV viremia clearance at week 8,"[1]; excluding 60 patients with TE CMV mutation conferring resistance, n = 171, p = 0.0709",no statistical exposure–efficacy relationship
same,Patients meeting primary endpoint of confirmed CMV viremia clearance at week 8,"[1]; exposure–response population n = 231, 400 mg BID, 131 patients",57%
same,Relationship between maribavir exposure (AUCss) and probability of CMV viremia clearance at week 8,"[1]; n = 231, p = 0.008",negative relationship
same,"Probability of being responder, primary endpoint","[1]; no TE CMV maribavir-resistant mutation, CD8 + CD69 + < 0.5%",74.2%
same,OR (95% CI): treatment-emergent maribavir resistance on maribavir treatment,[1]; primary endpoint,"0.00457 (3.59 × 10^–5, 0.0333)"
same,Non-responders among patients with TE maribavir-resistant CMV mutations,"[1]; primary endpoint, week 8",81%
same,Logistic regression Estimate (SE): baseline CD8+CD69+ cell count ≥2%,[1]; [8],1.19 (0.630)
same,OR (95% CI): baseline CD8+CD69+ cell count not reported,[1]; [8],"0.730 (0.328, 1.66)"
same,OR (95% CI): baseline CD8+CD69+ cell count ≥0.5% to <2%,[1]; [8],"0.739 (0.289, 1.98)"
same,OR (95% CI): baseline CD8+CD69+ cell count ≥2%,[1]; [8],"3.29 (1.07, 13.4)"
same,"Proportion of patients achieving key secondary endpoint (CMV viremia clearance and symptom control at end of week 8, maintained through week 16)",[2],18.7%
same,Proportion of patients achieving primary endpoint (confirmed CMV viremia clearance at week 8),[2]; transplant recipients with refractory CMV,55.7%
same,"Proportion of responders, key secondary endpoint",[3]; 1st quartile of AUCss,31%
same,"Proportion of responders, key secondary endpoint",[3]; 2nd quartile of AUCss,25%
same,"Proportion of responders, key secondary endpoint","[3]; 3rd quartile of AUCss, n = 9",16%
same,"Proportion of responders, key secondary endpoint","[3]; 4th quartile of AUCss, n = 3",5%
same,"Probability of being a responder, key secondary endpoint","[3]; baseline CD8 + CD69 + cell count ≥ 2%, otherwise reference, AUCss 200 µg∙h/mL",77.9%
same,"Probability of being a responder, key secondary endpoint","[3]; developed TE CMV maribavir-resistant mutation, CD8 + CD69 + < 0.5%, low CMV DNA, no prior prophylaxis, AUCss 200 µg∙h/mL",2.5%
same,"Patients meeting key secondary endpoint (clearance and symptom control at week 8, maintained through week 16)","[3]; exposure–response population n = 231, 400 mg BID, 44 patients",19%
same,"Probability of being a responder, key secondary endpoint","[3]; intermediate/high CMV DNA levels, otherwise reference, AUCss 200 µg∙h/mL",19.7%
same,Logistic regression Estimate (SE): Intercept,[3]; key secondary endpoint,0.814 (0.543)
same,OR (95% CI): prior use of CMV prophylaxis,[3]; key secondary endpoint,"0.441 (0.191, 0.969)"
same,OR (95% CI): treatment-emergent CMV mutation conferring resistance to maribavir,[3]; key secondary endpoint,"0.0381 (2.97×10^–4, 0.284)"
same,OR (95% CI): AUCss of maribavir,"[3]; key secondary endpoint, increment of 50 µg·h/mL","0.740 (0.611, 0.870)"
same,Logistic regression Estimate (SE): baseline CD8+CD69+ cell count ≥2%,[3]; [9],1.65 (0.552)
same,OR (95% CI): baseline CD8+CD69+ cell count not reported,[3]; [9],"0.899 (0.326, 2.34)"
same,OR (95% CI): baseline CD8+CD69+ cell count ≥0.5% to <2%,[3]; [9],"0.594 (0.159, 1.88)"
same,OR (95% CI): baseline CD8+CD69+ cell count ≥2%,[3]; [9],"5.18 (1.82, 15.9)"
same,OR (95% CI): baseline CMV DNA level intermediate/high,"[3]; key secondary endpoint, reference low","0.363 (0.129, 0.910)"
same,Relationship between maribavir exposure (AUCss) and probability of response for the key secondary endpoint,[3]; p = 0.001,negative relationship
same,"Probability of being a responder, key secondary endpoint","[3]; prior use of CMV prophylaxis, otherwise reference, AUCss 200 µg·h/mL",23.0%
same,"Probability of being a responder, key secondary endpoint","[3]; reference: no TE mutation, CD8 + CD69 + < 0.5%, low CMV DNA, no prior prophylaxis, AUCss 200 µg∙h/mL",40.3%
same,Increase in maribavir AUC0-∞,[4],53%
same,Increase in maribavir Cmax,[4],10%
same,"Relationship between probability of TE SAE and maribavir AUCday, AUCss, Cmax.ss, and Cavg",[5]; human,Statistically significant positive relationships
same,Relationship between probability of fatigue and maribavir exposure PK metrics,[5],Statistically significant positive relationships
same,Relationship between probability of taste disturbance and Cavg of maribavir,[5],statistically significant negative relationship
same,Share of CYP-mediated metabolism by CYP1A2,[6],15–30%
same,Increase in maribavir clearance,[7],2.5 fold
same,Reduction in maribavir AUC,[7],60%
same,Reduction in maribavir half-life,[7],30%
